Measured values: patent publication US12551368B2, “Bioerodible ocular drug delivery insert and therapeutic method” (EyePoint Pharmaceuticals, Inc., priority 2020, dated 2026)

How the values were obtained:
[1] = cited from earlier work
[2] = Intravitreal Pharmacokinetic Study of vorolanib insert (Example 5); format: in vivo, Male Dutch Belted Rabbits
Description: An Intravitreal Pharmacokinetic Study was performed in Male Dutch Belted Rabbits. The objective of this study was to characterize the plasma and ocular tissue pharmacokinetics of a vorolanib insert following bilateral intravitreal injection on Day 1. Animals were evaluated up to 24 months following placement of the intravitreal insert.
The low dose group (1) received 3 inserts per eye for a total dose of 630 μg per eye. The high dose group (2) animals received 6 inserts per eye given in 2 separate injections (3 inserts per injection) for a total dose of 1,260 μg per eye.
Prior to each scheduled sacrifice point, one whole blood sample was collected from a targeted 2 animals per group via puncture of a marginal ear vein. Samples were tested for levels of vorolanib and its metabolite. Two animals per group were euthanized on day 1 at 6, 12, 24 and 48 hours, on days 7 and 14, and at 1, 2, 4, 6, 8, 16 and 24 months.

[3] = 18 month intravitreal toxicity and plasma pharmacokinetics study of the insert (Example 6); format: in vivo; details: rabbit
Description: An 18 month intravitreal toxicity study for the insert was also performed in 80 Dutch Belted rabbits (40 male and 40 female). Animals were evaluated for a period of 6 and 18 months following placement of intravitreal inserts. The objective was to characterize the ocular toxicity, plasma pharmacokinetics and biodegradation of a vorolanib insert following bilateral intravitreal injection.
The tables below describe the group assignments and dose levels. For the toxicology groups, animals were sacrificed at 6 months and 18 months. For the plasma pharmacokinetic analysis, blood samples were collected at Days 1, 3, and 7 and then 1, 2, 3, 4, 5, 6, 12, 14, 16 and 18 Months
The placebo group (1) animals received two placebo inserts by injection in each eye. The low dose group (2) animals received 2 inserts in each eye. The mid dose group (3) animals received 3 inserts in each eye given in 2 separate injections. The high dose group (4) animals received 4 inserts in each eye given in 2 separate injections (2 inserts/injection). The highest dose group (5) animals received 6 inserts in each eye given in 2 separate injections (3 inserts/injection).
At each scheduled timepoint, whole blood was collected via puncture of a marginal ear vein. Samples were analyzed for clinical pathology and plasma pharmacokinetics. Animals were euthanized according to the schedules described above. […]

[4] = tested on: Laser-Induced Choroidal Neovascularization (CNV); experiment: Laser-Induced Choroidal Neovascularization (CNV) model, fluorescein angiography (Example 7); format: in vivo, Swine (Mini-pig)
Description: Safety and efficacy of a vorolanib insert were evaluated in a Swine (Mini-pig) Model of Laser-Induced Choroidal Neovascularization (CNV). The primary objective of this study was to evaluate the long-term safety and inhibition of vascular permeability and neovascularization in a laser-induced model of choroidal neovascularization (CNV) using a vorolanib insert in swine.
On the day of lasering (Groups 1-4) animals were treated with an 810 nm diode laser delivered through an indirect ophthalmoscope. Approximately 6 single laser spots were placed between retinal veins. Both eyes underwent laser treatment according to the schedule in the table above.
On the day of intravitreal injections animals were anesthetized and the eyes were aseptically prepared. […] Animals were allowed to recover normally from the procedure. The pigs were given a topical drop of antibiotic ophthalmic solution 4-6 hours later, and then BID for 2 additional days with at least 6 hours between doses. Animals were dosed on either Day 0 immediately following laser CNV induction or 7 days prior to laser CNV induction according to the schedule in the table above.
Flourescein Angiography was done in both eyes in anesthetized animals at the timepoints as indicated in the experimental design table.

CNC(=O)c1ccccc1Sc1ccc2c(/C=C/c3ccccn3)n[nH]c2c1 [axitinib, N-methyl-2-[3-((E)-2-pyridin-2-yl-vinyl)-1H-indazol-6-ylsulfanyl]-benzamide]
solubility in aqueous media ([1]; over the range pH 1.1 to pH 7.8): > 0.2 µg/mL

Cc1[nH]c(/C=C2\C(=O)Nc3ccc(F)cc32)c(C)c1C(=O)N[C@H]1CCN(C(=O)N(C)C)C1 [vorolanib, (S,Z)—N-(1-(Dimethylcarbamoyl)pyrrolidin-3-yl)-5-((5-fluoro-2-oxoindolin-3-ylidene)methyl)-2,4-dimethyl-1H-pyrrole-3-carboxamide]
dose proportionality of maximum observed concentrations in vitreous and retina/choroid ([2]; 630 vs 1,260 μg per eye, rabbit): nearly dose-proportional | vorolanib plasma levels ([2]; PK study, rabbit): low pg/mL range | change in plasma levels ([2]; after 99 days, rabbit): No apparent change | vorolanib levels in the vitreous and the retina/choroid relative to the IC50 for VEGFR ([2]; at the time points tested, rabbit): remained significantly above the IC50 for VEGFR | time at which steady state was reached ([2]; inserts in rabbit eye): ≤ 105 days | burst period of drug release in vivo ([2]; inserts in rabbit eye, followed by steady state): 90 days | vorolanib plasma levels ([3]; 2 to 6 inserts per eye, bilateral intravitreal, toxicology study): low pg/mL range | adverse findings ([3]; intravitreal, up to 6 inserts per eye): No adverse findings were attributed to vorolanib | solubility in water [1]: less than 0.1 μg/mL

aflibercept: VEGF inhibitor used as comparator, 2 mg, 50 μL/eye IVT
reduction in Corrected Total Lesion Fluorescence (CTLF) value ([4]; Day 7 to Day 28, Aflibercept (2 mg), 50 μL/eye IVT): largest reduction in CTLF values | overall efficacy in the CNV model ([4]; IVT, swine): normal amounts of efficacy in this model
